Data: patent US20250144067A1, “PERSONALIZED STARVATION THERAPY FOR CANCER” (Faeth Therapeutics, Inc., priority 2021, published 2025)
Where a name gives a salt, the structure may show the parent alone.

Key:
[1] = test system: NCI-H292 lung cancer cells; assay: FDA drug screening, complete media vs cholesterol-free media with simvastatin (TABLE 2); type: cell-based, human; conditions: for Cholesterol-free media + simvastatin (0.04 μM) / Complete Media: NCI-H292 cells
[2] = test system: NCI-H292 lung cancer cells; assay: FDA drug screening, complete media vs cholesterol-free media without statin (TABLE 1); type: cell-based, human
[3] = complete media minus cholesterol-free media + simvastatin, >0 enhanced anti-cancer activity, about 0 neutral, <0 antagonist
[4] = NCI-H292 cells, cholesterol-free media without statin
[5] = complete vs cholesterol-free media, greater than 0 enhanced anti-cancer activity, about 0 neutral, below 0 antagonists
[6] = cholesterol-free media with simvastatin 0.04 μM, FDA drug library screen (TABLE 2)
[7] = complete media, FDA drug library screen (TABLE 2)
[8] = complete media minus cholesterol-free media + simvastatin (0.04 μM), >0 enhanced anti-cancer activity, about 0 neutral, <0 antagonist
[9] = Complete minus Cholesterol-free, >0 enhanced anti-cancer activity, about 0 neutral, <0 antagonist
[10] = drug in cholesterol-free media with simvastatin 0.04 μM
[11] = complete media vs cholesterol-free media + simvastatin (0.04 μM), >0 enhanced anti-cancer activity, about 0 neutral, <0 antagonist
[12] = NCI-H292 cells, cholesterol-free media without statin, FDA drug library screen
[13] = NCI-H292 cells, complete media, FDA drug library screen
[14] = FDA drug library screen, cholesterol-free media with simvastatin 0.04 μM
[15] = FDA drug library screen, complete media
[16] = Complete minus Cholesterol-free, greater than 0 enhanced anti-cancer activity, about 0 neutral, below 0 antagonists
[17] = NCI-H292 cells in cholesterol-free media without statin
[18] = NCI-H292 cells in complete media

Row | SMILES | Cholesterol-free [2, 4] | Complete ([2]; NCI-H292 cells, complete media) | Difference [2, 9] | Difference [1, 11] | Cholesterol-free [2, 12] | Complete [2, 13] | Cholesterol-free media + simvastatin (0.04 μM) [1, 14] | Complete Media [1, 15] | other results
1 | CCCCN1CCCC[C@H]1C(=O)Nc1c(C)cccc1C [Levobupivacaine (hydrochloride)] | 1.298 | 0.9683 | – | – | – | – | – | – | Cholesterol-free media + simvastatin (0.04 μM) ([1]; cholesterol-free media with simvastatin 0.04 μM, cell growth value in FDA drug screen): 0.871; Complete Media ([1]; complete media, cell growth value in FDA drug screen): 0.9154; Difference [1, 3]: 0.04; Difference [2, 5]: −0.33
2 | CCC(=O)O[C@H](CC(=O)O)C[N+](C)(C)C [Levocarnitine propionate (hydrochloride)] | 1.256 | 0.9514 | −0.30 | – | – | – | – | – | Cholesterol-free media + simvastatin (0.04 μM) [1, 6]: 1.106; Complete Media [1, 7]: 1.114; Difference [1, 8]: 0.01
3 | O=C(O)COCCN1CCN([C@H](c2ccccc2)c2ccc(Cl)cc2)CC1 [Levocetirizine (dihydrochloride)] | – | – | 0.02 | −0.26 | 0.8691 | 0.8901 | – | – | Cholesterol-free media + simvastatin (0.04 μM) [1, 10]: 1.115; Complete Media ([1]; drug in complete media): 0.8515
4 | OC[C@@H](O)CN1CCN(c2ccccc2)CC1 [Levodropropizine] | – | – | – | −0.15 | – | – | 1.096 | 0.9475 | Difference ([2]; Complete minus Cholesterol-free, greater than 0 enhanced anti-cancer activity, about 0 neutral, below 0 antagonist): −0.15; Cholesterol-free ([2]; NCI-H292 cells, FDA drug library screen, cholesterol-free media without statin): 0.946; Complete ([2]; NCI-H292 cells, FDA drug library screen, complete media): 0.7999
5 | C[C@H]1COc2c(N3CCN(C)CC3)c(F)cc3c(=O)c(C(=O)O)cn1c23 [Levofloxacin (hydrate)] | – | – | – | −0.12 | – | – | 1.078 | 0.9583 | Difference [2, 16]: −0.48; Cholesterol-free [2, 17]: 1.308; Complete [2, 18]: 0.8243
6 | C[C@H]1COc2c(N3CCN(C)CC3)c(F)cc3c(=O)c(C(=O)O)cn1c23 [Levofloxacin] | 1.162 | 0.933 | −0.23 | −0.19 | – | – | – | – | Cholesterol-free media + simvastatin (0.04 μM) [1, 10]: 1.136; Complete Media ([1]; drug in complete media): 0.944
7 | Nc1nc(=O)c2c([nH]1)NC[C@H](CNc1ccc(C(=O)N[C@@H](CCC(=O)[O-])C(=O)[O-])cc1)N2C=O.[Ca+2] [Levoleucovorin (Calcium)] | – | – | – | – | 1.535 | 1.487 | 1.534 | 1.758 | Difference ([1]; complete media minus cholesterol-free media + simvastatin, […]): 0.22; Difference ([2]; Complete minus Cholesterol-free, […]): −0.05
8 | CN1c2c(nc(N)[nH]c2=O)NC[C@@H]1CNc1ccc(C(=O)N[C@@H](CCC(=O)O)C(=O)O)cc1 [Levomefolic acid] | 1.808 | 1.368 | – | – | – | – | – | – | Cholesterol-free media + simvastatin (0.04 μM) [1, 6]: 0.9044; Complete Media [1, 7]: 0.8568; Difference [1, 8]: −0.05; Difference [2, 5]: −0.44
9 | COc1ccc2c(c1)N(C[C@H](C)CN(C)C)c1ccccc1S2 [Levomepromazine] | – | – | 0.01 | – | 0.8962 | 0.9041 | 0.8554 | 1.084 | Difference [1, 3]: 0.23
10 | C#C[C@]1(O)CC[C@H]2[C@@H]3CCC4=CC(=O)CC[C@@H]4[C@H]3CC[C@@]21CC [Levonorgestrel] | 1.107 | 0.8992 | −0.21 | −0.33 | – | – | – | – | Cholesterol-free media + simvastatin (0.04 μM) ([1]; FDA library drug in cholesterol-free media with simvastatin 0.04 μM): 1.877; Complete Media ([1]; FDA library drug in complete media): 1.543
11 | C[C@@H]1CC(=O)NN=C1c1ccc(NN=C(C#N)C#N)cc1 [Levosimendan] | – | – | −0.06 | −0.12 | 1.195 | 1.131 | 1.165 | 1.044 | –
12 | CCN1CCC[C@H]1CNC(=O)c1cc(S(N)(=O)=O)ccc1OC [Levosulpiride] | – | – | – | – | – | – | 0.9156 | 1.092 | Difference [1, 3]: 0.18; Difference [2, 16]: −0.54; Cholesterol-free [2, 17]: 1.287; Complete [2, 18]: 0.7498
13 | CCN(CC)CC(=O)Nc1c(C)cccc1C [Lidocaine (hydrochloride)] | 1.21 | 0.9883 | −0.22 | – | – | – | – | – | Cholesterol-free media + simvastatin (0.04 μM) [1, 6]: 0.8862; Complete Media [1, 7]: 0.8646; Difference [1, 8]: −0.02
